Assay: Stability test: HPLC purity after standing in solution at different temperatures
Assay type: physicochemical
Conditions: Solution (10%)
Procedure: The stabilities of the co-crystals of efinaconazole to temperature and a solution were evaluated and compared by the following experimental method.

HPLC (%) (65 °C (oven), after 1 week): 99.55%
Related substances (%) (65 °C (oven), after 1 week): 0.45%
HPLC (%) (65 °C (oven), after 2 weeks): 99.46%
Related substances (%) (65 °C (oven), after 2 weeks): 0.54%
HPLC (%) (65 °C (oven), after 4 weeks): 98.47%
Related substances (%) (65 °C (oven), after 4 weeks): 1.53%
HPLC (%) (room temp., after 1 week): 99.73%
Related substances (%) (room temp., after 1 week): 0.27%
HPLC (%) (room temp., after 2 weeks): 99.61%
Related substances (%) (room temp., after 2 weeks): 0.39%
HPLC (%) (room temp., after 4 weeks): 99.60%
Related substances (%) (room temp., after 4 weeks): 0.40%
SMILES: C=C1CCN([C@H](C)[C@](O)(Cn2cncn2)c2ccc(F)cc2F)CC1 [Efinaconazole, efinaconazole]

— US12325694B2, “Co-crystalline form of efinaconazole and method for preparing the same” (Daebong Ls Co., Ltd., priority 2019, dated 2025)
